From patent US20250171457A1, “NITROGEN-CONTAINING HETEROCYCLIC COMPOUND HAVING NRF2 ACTIVATION EFFECT” (CHUGAI SEIYAKU KABUSHIKI KAISHA, priority 2022, published 2025)
pEC50: −log10 of the molar value.

Test system: Nrf2 transcriptional activity (pARE-Luc reporter) in HepG2 cells
Assay: In vitro Nrf2 transcriptional activity measurement by ARE-dependent reporter assay in HepG2 cell
Type: cell-based, human
Settings: Homo sapiens; HepG2 cells transfected with pARE-Luc, 4 hours at 37° C.; luciferase activity of Example 1-54 or Example 17-23 at 3.75 μM defined as 100%
Method in brief: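 HepG2 cells transfected with pGL4.37 (pARE-Luc), replated onto compound and incubated 4 h at 37° C; luciferase read by Bright-Glo luminescence. Response normalized to 100% set by a reference compound at 3.75 μM; EC50 from dose-response curve.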

Row | SMILES | pEC50
1 | COc1cc(Cl)c(C(=O)N2COc3c(cccc3-c3cc(N4CCOCC4)c(C(=O)O)cc3F)C2)cc1OC [Compound 13-17, 4-[3-(2-Chloro-4,5-dimethoxybenzoyl)-2,4-dihydro-1,3-benzoxazin-8-yl]-5-fluoro-2-morpholin-4-ylbenzoic acid] | 8.23
2 | Cn1cc(-c2cc(Cl)c(C(=O)N3CSc4c(cccc4-c4cc(N5CCOCC5)c(C(=O)O)cc4F)C3)c(Cl)c2)cn1 [Compound 13-18, 4-[3-[2,6-Dichloro-4-(1-methylpyrazol-4-yl)benzoyl]-2,4-dihydro-1,3-benzothiazin-8-yl]-5-fluoro-2-morpholin-4-ylbenzoic acid] | 7.68
3 | Cn1cc(-c2cc(Cl)c(C(=O)N3COc4c(cccc4-c4cc(N5CCOCC5)c(C(=O)O)cc4F)C3)c(Cl)c2)cn1 [Compound 13-19, 4-[3-[2,6-Dichloro-4-(1-methylpyrazol-4-yl)benzoyl]-2,4-dihydro-1,3-benzoxazin-8-yl]-5-fluoro-2-morpholin-4-ylbenzoic acid] | 8.80
4 | Cc1cc(-c2cccc3c2OCN(C(=O)c2c(Cl)cc(-c4cnn(C)c4)cc2Cl)C3)cc(N2CCOCC2)c1C(=O)O [Compound 13-20, 4-[3-[2,6-Dichloro-4-(1-methylpyrazol-4-yl)benzoyl]-2,4-dihydro-1,3-benzoxazin-8-yl]-2-methyl-6-morpholin-4-ylbenzoic acid] | 8.14

Results, then the compound that gave them:

Row | pEC50 | SMILES
5 | 8.19 | Cn1cc(-c2cc(Cl)c(C(=O)N3COc4c(cccc4-c4cc(N5CC6COCC6C5)c(C(=O)O)cc4F)C3)c(Cl)c2)cn1 (centres unmarked) [Compound 14-2, 2-(1,3,3a,4,6,6a-Hexahydrofuro[3,4-c]pyrrol-5-yl)-4-[3-[2,6-dichloro-4-(1-methylpyrazol-4-yl)benzoyl]-2,4-dihydro-1,3-benzoxazin-8-yl]-5-fluorobenzoic acid]
6 | 7.92 | Cn1cc(-c2cc(Cl)c(C(=O)N3COc4c(cccc4-c4ccc(C(=O)O)c(N5CCC(F)(F)CC5)c4)C3)c(Cl)c2)cn1 [Compound 14-3, 4-[3-[2,6-Dichloro-4-(1-methylpyrazol-4-yl)benzoyl]-2,4-dihydro-1,3-benzoxazin-8-yl]-2-(4,4-difluoropiperidin-1-yl)benzoic acid]
7 | 8.42 | Cn1cc(-c2cc(Cl)c(C(=O)N3Cc4cccc(-c5ccc(C(=O)O)c(N6CCOCC6)c5)c4C(=O)N3)c(Cl)c2)cn1 [Compound 14-4, 4-[2-[2,6-Dichloro-4-(1-methylpyrazol-4-yl)benzoyl]-4-oxo-1,3-dihydrophthalazin-5-yl]-2-morpholin-4-ylbenzoic acid]
8 | 8.51 | Cn1cc(-c2cc(Cl)c(C(=O)N3CNc4c(cccc4-c4ccc(C(=O)O)c(N5CCOCC5)c4)C3)c(Cl)c2)cn1 [Compound 14-5, 4-[3-[2,6-Dichloro-4-(1-methylpyrazol-4-yl)benzoyl]-2,4-dihydro-1H-quinazolin-8-yl]-2-morpholin-4-ylbenzoic acid]
9 | 7.70 | Cn1cc(-c2cc(Cl)c(C(=O)N3Cc4cccc(-c5ccc(C(=O)O)c(N6CCOCC6)c5)c4NC3=O)c(Cl)c2)cn1 [Compound 14-6, 4-[3-[2,6-Dichloro-4-(1-methylpyrazol-4-yl)benzoyl]-2-oxo-1,4-dihydroquinazolin-8-yl]-2-morpholin-4-ylbenzoic acid]
10 | 8.60 | [2H]C1([2H])c2cccc(-c3ccc(C(=O)O)c(N4CCOCC4)c3)c2OCN1C(=O)c1c(Cl)cc(-c2cnn(C)c2)cc1Cl [Compound 14-7, 4-[4,4-Dideuterio-3-[2,6-dichloro-4-(1-methylpyrazol-4-yl)benzoyl]-2H-1,3-benzoxazin-8-yl]-2-morpholin-4-ylbenzoic acid]
11 | 7.15 | Cn1cc(-c2cc(Cl)c(C(=O)N3Cc4cccc(-c5ccc(C(=O)O)c(N6CCOCC6)c5)c4CO3)c(Cl)c2)cn1 [Compound 14-8, 4-[3-[2,6-Dichloro-4-(1-methylpyrazol-4-yl)benzoyl]-1,4-dihydro-2,3-benzoxazin-8-yl]-2-morpholin-4-ylbenzoic acid]
